How the values were obtained:
[1] = target: T1, ACLY (Homo sapiens (Human), UniProt P53396); assay: Human ACLY (hACLY) RF/MS activity assay; format: biochemical; conditions: 1 nM hACLY; 30 min pre-incubation; 15 μM Coenzyme A, 50 μM ATP, 50 μM citrate; CoA to Acetyl-CoA by RF/MS; read-out: RFMS IC50 GMean
Outline: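 Reaction buffer was 50 mM Hepes pH 8.0, 10 mM MgCl2, 0.003% BSA, 0.01% Brij35, 50 mM NaCl, 4 mM DTT, with 1 nM hACLY and 1% DMSO; compounds (two-fold series from 10 μM) were pre-incubated 30 min at RT. Reaction with 15 μM CoA, 50 μM ATP, 50 μM citrate ran 30 min, formic-acid quenched; CoA and acetyl-CoA quantified by RF/MS as ratio.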

[2] = target: T1, ACLY; assay: InCell Pulse assay (permeate HEK293 cells, bind to and stabilize ACLY); format: cell-based; conditions: HEK293 cells transfected with pICP-ACLY(FL)-ePL; 1 hour at 37° C., 55° C. heat pulse 10 minutes; read-out: InCell Pulse IC50 GMean
Outline: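 HEK293 cells transiently expressing full-length ACLY-ePL were exposed in OptiMEM to 11-point, 3-fold compound dilutions for 1 h at 37 °C, heat-pulsed 10 min at 55 °C, then lysed for enzyme-fragment complementation luminescence. Four-parameter fit, normalised to 0.5% DMSO and 1 μM NDI-094311.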

T1 sequence (P53396 whole entry): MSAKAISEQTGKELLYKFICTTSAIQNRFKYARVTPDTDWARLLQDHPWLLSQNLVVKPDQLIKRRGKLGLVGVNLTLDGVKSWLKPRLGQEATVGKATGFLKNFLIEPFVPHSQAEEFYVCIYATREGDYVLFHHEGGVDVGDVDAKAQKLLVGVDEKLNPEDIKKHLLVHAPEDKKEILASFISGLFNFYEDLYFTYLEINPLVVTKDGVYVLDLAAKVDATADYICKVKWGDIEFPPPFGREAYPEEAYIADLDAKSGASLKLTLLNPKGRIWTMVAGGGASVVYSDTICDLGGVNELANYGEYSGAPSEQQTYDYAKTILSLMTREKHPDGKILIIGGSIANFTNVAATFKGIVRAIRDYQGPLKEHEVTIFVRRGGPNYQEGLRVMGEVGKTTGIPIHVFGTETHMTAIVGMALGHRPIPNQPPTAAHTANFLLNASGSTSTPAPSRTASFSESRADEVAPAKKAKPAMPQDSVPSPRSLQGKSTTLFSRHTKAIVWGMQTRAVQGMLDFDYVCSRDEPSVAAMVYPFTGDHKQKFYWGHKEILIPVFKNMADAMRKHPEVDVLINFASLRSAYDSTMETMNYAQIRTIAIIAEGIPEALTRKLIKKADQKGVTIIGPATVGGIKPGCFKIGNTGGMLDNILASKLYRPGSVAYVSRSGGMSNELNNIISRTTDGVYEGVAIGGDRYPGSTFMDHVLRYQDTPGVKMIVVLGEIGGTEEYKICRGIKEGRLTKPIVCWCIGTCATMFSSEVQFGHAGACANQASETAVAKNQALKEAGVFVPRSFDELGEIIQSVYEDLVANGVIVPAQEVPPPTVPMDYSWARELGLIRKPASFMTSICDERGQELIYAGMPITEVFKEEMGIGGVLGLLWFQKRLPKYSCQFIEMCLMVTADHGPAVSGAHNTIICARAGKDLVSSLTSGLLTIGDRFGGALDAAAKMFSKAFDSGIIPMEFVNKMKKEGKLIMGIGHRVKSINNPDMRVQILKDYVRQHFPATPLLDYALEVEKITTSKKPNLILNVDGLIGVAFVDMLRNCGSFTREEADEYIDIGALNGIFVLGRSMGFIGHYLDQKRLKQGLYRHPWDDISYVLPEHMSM

Compound | IC50 [1] | IC50 [2]
O=C1OCCOc2ccccc2-c2cc(c(F)cc2F)NS(=O)(=O)c2cc(O)cc1c2 [Compound 65, 21,23-difluoro-15-hydroxy-18,18-dioxo-8,11-dioxa-18λ6-thia-19-azatetracyclo[18.3.1.113,17.02,7]pentacosa-1(24),2,4,6,13,15,17(25),20,22-nonaen-12-one] | ≥ 10 µM | ≥ 50 µM
O=S1(=O)Nc2cc(c(F)cc2F)-c2ccccc2OCCOCc2cc(Cl)c(O)c1c2 [Compound 67, 15-chloro-21,23-difluoro-18,18-dioxo-8,11-dioxa-18λ6-thia-19-azatetracyclo[18.3.1.113,17.02,7]pentacosa-1(23),2(7),3,5,13,15,17(25),20(24),21-nonaen-16-ol] | < 0.02 µM | 0.3 to 1 µM
O=C1Cc2cc(Cl)c(O)c(c2)S(=O)(=O)Nc2cc(c(F)cc2F)-c2ccccc2CO1 [Compound 68, 14-chloro-20,22-difluoro-15-hydroxy-17,17-dioxo-9-oxa-17λ6-thia-18-azatetracyclo[17.3.1.112,16.02,7]tetracosa-1(22),2(7),3,5,12(24),13,15,19(23),20-nonaen-10-one] | < 0.02 µM | < 0.3 µM
O=S1(=O)Nc2cc(ccc2F)-c2ccccc2CCOCc2cc(Cl)c(O)c1c2 [Compound 69, 14-chloro-20-fluoro-17,17-dioxo-10-oxa-17λ6-thia-18-azatetracyclo[17.3.1.112,16.02,7]tetracosa-1(23),2,4,6,12,14,16(24),19,21-nonaen-15-ol] | 0.1 to 10 µM | < 0.3 µM
O=C1OCC[C@H]2CCCN2c2ccc(F)c(c2)NS(=O)(=O)c2cc1cc(Cl)c2O [Compound 70, (6R)-13-chloro-19-fluoro-14-hydroxy-16,16-dioxo-9-oxa-16%6-thia-2,17-diazatetracyclo[16.3.1.111,15.02,6]tricosa-1(21),11(23),12,14,18(22),19-hexaen-10-one] | 0.02 to 0.1 µM | ≥ 50 µM
CN1CCc2ccccc2-c2cc(c(F)cc2F)NS(=O)(=O)c2cc(cc(Cl)c2O)C1=O [Compound 71, 14-chloro-20,22-difluoro-15-hydroxy-10-methyl-17,17-dioxo-17λ6-thia-10,18-diazatetracyclo[17.3.1.112,16.02,7]tetracosa-1(22),2(7),3,5,12,14,16(24),19(23),20-nonaen-11-one] | < 0.02 µM | ≥ 50 µM
O=C1OCCc2ccccc2-c2ccc(F)c(c2)NS(=O)(=O)c2cc1cc(Cl)c2O [Compound 72, 14-chloro-20-fluoro-15-hydroxy-17,17-dioxo-10-oxa-17λ6-thia-18-azatetracyclo[17.3.1.112,16.02,7]tetracosa-1(22),2(7),3,5,12,14,16(24),19(23),20-nonaen-11-one] | < 0.02 µM | < 0.3 µM
O=C1OCCc2cc(F)ccc2-c2ccc(F)c(c2)NS(=O)(=O)c2cc1cc(Cl)c2O [Compound 73, 14-chloro-5,20-difluoro-15-hydroxy-17,17-dioxo-10-oxa-17λ6-thia-18-azatetracyclo[17.3.1.112,16.02,7]tetracosa-1(22),2(7),3,5,12,14,16(24),19(23),20-nonaen-11-one] | 0.02 to 0.1 µM | < 0.3 µM
O=C1OCCc2ccc(F)cc2-c2ccc(F)c(c2)NS(=O)(=O)c2cc1cc(Cl)c2O [Compound 74, 14-chloro-4,20-difluoro-15-hydroxy-17,17-dioxo-10-oxa-17λ6-thia-18-azatetracyclo[17.3.1.112,16.02,7]tetracosa-1(22),2(7),3,5,12(24),13,15,19(23),20-nonaen-11-one] | 0.02 to 0.1 µM | < 0.3 µM
Cc1cc2cc(c1O)S(=O)(=O)Nc1cc(c(F)cc1F)-c1ccccc1CCOC2=O [Compound 75, 20,22-difluoro-15-hydroxy-14-methyl-17,17-dioxo-10-oxa-17λ6-thia-18-azatetracyclo[17.3.1.112,16.02,7]tetracosa-1(23),2,4,6,12,14,16(24),19,21-nonaen-11-one] | 0.1 to 10 µM | 0.3 to 1 µM
O=C1OCC2CN(C2)c2ccccc2-c2cc(c(F)cc2F)NS(=O)(=O)c2cc1cc(Cl)c2O [Compound 76, 16-chloro-22,24-difluoro-17-hydroxy-19,19-dioxo-12-oxa-19λ6-thia-8,20-diazapentacyclo[19.3.1.18,10.114,18.02,7]heptacosa-1(25),2,4,6,14,16,18(26),21,23-nonaen-13-one] | 0.02 to 0.1 µM | 1 to 50 µM
O=S1(=O)Nc2cc(c(F)cc2F)-c2ccccc2OCCn2cnnc2-c2cc(Cl)c(O)c1c2 [Compound 77, 25-chloro-17,19-difluoro-22,22-dioxo-9-oxa-2λ6-thia-3,4,6,21-tetrazapentacyclo[21.3.1.116,20.02,6.010,15]octacosa-1(26),2,4,10,12,14,16(28),17,19,23(27),24-undecaen-24-ol] | < 0.02 µM | 1 to 50 µM
O=C1OCc2ccccc2-c2cc(c(F)cc2F)NS(=O)(=O)c2cc1cc(Cl)c2O [Compound 78, 13-Chloro-19,21-difluoro-14-hydroxy-16,16-dioxo-9-oxa-16λ6-thia-17-azatetracyclo[16.3.1.111,15.02,7]tricosa-1(21),2(7),3,5,11(23),12,14,18(22),19-nonaen-10-one] | < 0.02 µM | < 0.3 µM
O=C1OCCOc2ccc(F)cc2-c2cc(F)c(F)c(c2)NS(=O)(=O)c2cc1cc(Cl)c2O [Compound 79, 15-chloro-4,21,22-trifluoro-16-hydroxy-18,18-dioxo-8,11-dioxa-18λ6-thia-19-azatetracyclo[18.3.1.113,17.02,7]pentacosa-1(23),2(7),3,5,13,15,17(25),20(24),21-nonaen-12-one] | < 0.02 µM | < 0.3 µM
O=C1OCCc2ccccc2-c2cc(F)c(F)c(c2)NS(=O)(=O)c2cc1cc(Cl)c2O [Compound 80, 14-chloro-20,21-difluoro-15-hydroxy-17,17-dioxo-10-oxa-17λ6-thia-18-azatetracyclo[17.3.1.112,16.02,7]tetracosa-1(23),2,4,6,12,14,16(24),19,21-nonaen-11-one] | < 0.02 µM | < 0.3 µM
O=C1OCc2ccc(F)cc2-c2cc(c(F)cc2F)NS(=O)(=O)c2cc1cc(Cl)c2O [Compound 81, 13-chloro-4,19,21-trifluoro-14-hydroxy-16,16-dioxo-9-oxa-16λ6-thia-17-azatetracyclo[16.3.1.111,15.02,7]tricosa-1(21),2,4,6,11(23),12,14,18(22),19-nonaen-10-one] | < 0.02 µM | < 0.3 µM
O=C1OCc2ccccc2-c2cc(F)c(F)c(c2)NS(=O)(=O)c2cc1cc(Cl)c2O [Compound 82, 13-chloro-19,20-difluoro-14-hydroxy-16,16-dioxo-9-oxa-16λ6-thia-17-azatetracyclo[16.3.1.111,15.02,7]tricosa-1(21),2,4,6,11(23),12,14,18(22),19-nonaen-10-one] | < 0.02 µM | < 0.3 µM
O=C1OCc2ccc(F)cc2-c2cc(F)c(F)c(c2)NS(=O)(=O)c2cc1cc(Cl)c2O [Compound 83, 13-chloro-4,19,20-trifluoro-14-hydroxy-16,16-dioxo-9-oxa-16λ6-thia-17-azatetracyclo[16.3.1.111,15.02,7]tricosa-1(21),2,4,6,11,13,15(23),18(22),19-nonaen-10-one] | < 0.02 µM | < 0.3 µM
O=C1OCc2ccccc2-c2ccc(F)c(c2)NS(=O)(=O)c2cc1cc(Cl)c2O [Compound 84, 13-chloro-19-fluoro-14-hydroxy-16,16-dioxo-9-oxa-16λ6-thia-17-azatetracyclo[16.3.1.111,15.02,7]tricosa-1(21),2(7),3,5,11(23),12,14,18(22),19-nonaen-10-one] | 0.1 to 10 µM | < 0.3 µM
N#Cc1ccc2c(c1)COC(=O)c1cc(Cl)c(O)c(c1)S(=O)(=O)Nc1cc-2c(F)cc1F [Compound 85, 13-chloro-19,21-difluoro-14-hydroxy-10,16,16-trioxo-9-oxa-16λ6-thia-17-azatetracyclo[16.3.1.111,15.02,7]tricosa-1(21),2(7),3,5,11,13,15(23),18(22),19-nonaene-5-carbonitrile] | < 0.02 µM | ≥ 50 µM
N#Cc1ccc2c(c1)-c1cc(c(F)cc1F)NS(=O)(=O)c1cc(cc(Cl)c1O)C(=O)OC2 [Compound 86, 13-chloro-19,21-difluoro-14-hydroxy-10,16,16-trioxo-9-oxa-16λ6-thia-17-azatetracyclo[16.3.1.111,15.02,7]tricosa-1(21),2,4,6,11(23),12,14,18(22),19-nonaene-4-carbonitrile] | 0.1 to 10 µM | 0.3 to 1 µM
O=C1OCc2cccnc2-c2cc(c(F)cc2F)NS(=O)(=O)c2cc1cc(Cl)c2O [Compound 87, 13-chloro-19,21-difluoro-14-hydroxy-16,16-dioxo-9-oxa-16λ6-thia-3,17-diazatetracyclo[16.3.1.111,15.02,7]tricosa-1(21),2(7),3,5,11,13,15(23),18(22),19-nonaen-10-one] | 0.02 to 0.1 µM | ≥ 50 µM
O=C1OCc2ncccc2-c2cc(c(F)cc2F)NS(=O)(=O)c2cc1cc(Cl)c2O [Compound 88, 13-chloro-19,21-difluoro-14-hydroxy-16,16-dioxo-9-oxa-16λ6-thia-6,17-diazatetracyclo[16.3.1.111,15.02,7]tricosa-1(21),2(7),3,5,11,13,15(23),18(22),19-nonaen-10-one] | 0.1 to 10 µM | ≥ 50 µM

— patent US20250289793A1, “MACROCYCLIC INHIBITORS OF ATP CITRATE LYASE” (Esperion Therapeutics, Inc., priority 2022, published 2025)
